Source: patent US9814727B2, “Piperazine phenothiazine derivatives for treating spasticity” (UNIVERSITE D'AIX-MARSEILLE, priority 2014, dated 2017)

Tested on: lumbar motoneurons (MNs)
Assay: Intracellular recordings of lumbar motoneurons in the in vitro spinal cord preparation (EIPSP)
Type: cell-based, rat
Conditions: 10 μM
Excerpt: Spinal cords isolated from neonatal rats on post natal day 4 or 5 were dissected together with spinal roots. Briefly, after decapitation and evisceration, the spinal cord was exposed by dorsal laminectomy and acute removal of the dura in a cold artificial cerebrospinal fluid (ACSF; containing (in mM): 130 NaCl, 4 KCl, 3.75 CaCl2, 1.3 MgSO4, 0.58 NaH2PO4, 25 NaHCO3 and 10 glucose (all compounds were from Sigma); oxygenated with 95% O2/5% CO2, pH=7.4). The cord, from sacral segments up to T8, was then removed from the vertebral column together with peripheral roots. The preparation was then transferred to the recording chamber where it was pinned down, ventral side up, in sylgard (Dow-Corning; USA)-covered recording chamber, and continuously perfused with the ACSF solution. After removing the pia, we recorded lumbar motoneurons (MNs) intracellularly using glass microelectrodes filled with 2 M K-acetate (70 to 100-MΩ resistance). We recorded intracellular potentials in the discontinuous current-clamp (DCC) mode (Axoclamp 2B amplifier; Digidata 1200 interface; pClamp9 software; Axon Instruments, Sunnyvale, Calif., USA). We used glass suction electrode to stimulate the ipsilateral ventral funiculus 2 to 3 segments rostral to the recorded one. Such stimulations induced GABAA- and Gly-mediated Inhibitory Postsynaptic Potentials (IPSPs) in the presence of DL-2-amino-5-phosphonovaleric acid (DL-APV, 50 μM) and 6-cyano-7-nitroquinoxaline-2,3-dione (CNQX, 10 μM) (Bos et al., 2013; Boulenguez et al., 2010; Jean-Xavier et al., 2006). We recorded IPSPs at various holding potentials (500-ms-long current pulses) and collected at least 20 values for each MN. We measured and plotted amplitudes of IPSPs against holding potentials and obtained EIPSP from the regression line.
In the in vitro spinal cord preparation, isolated from neonatal rat, a way to investigate KCC2 function is provided by recording motoneurons (MNs) intracellularly and measuring the chloride equilibrium potential that is given by the reversal potential of inhibitory synaptic potentials (EIPSP). The more hyperpolarized the value of EIPSP, the lower the intracellular concentration of chloride ions and, as a result, the stronger the KCC2 function. The inventors have examined the effect of 10 μM Prochlorperazine (2) on EIPSP of lumbar MNs in P4-6 rats (FIG. 3). It hyperpolarized EIPSP within 5-10 min and measurements were done 20-25 min after the onset of Prochlorperazine (2) application.

With `CN1CCN(CCCN2c3ccccc3Sc3ccc(Cl)cc32)CC1` [compound 2, 2-chloro-10-[3-(4-methyl-1-piperazinyl)propyl]-10H-phenothiazine] the “change of driving force (EIPSP-Vrest)” value (20-25 min, n=6) was −3.5 mV, the “effect on resting membrane potential (Vrest)” value (20-25 min, n=6) was “no significant impact” and the “hyperpolarizing shift of EIPSP compared to control” value (20-25 min after onset of application, P4-6 rats, n=6) was −3.3 mV. The “time to hyperpolarization of EIPSP” value (P4-6 rats) was 5 to 10 min.
